According to patent US20160193206A1, “BET-PROTEIN-INHIBITING DIHYDROPYRIDOPYRAZINONES” (BAYER PHARMA AKTIENGESELLSCHAFT, priority 2012, published 2016):
pIC50: −log10 of the molar value.

Tests used:
[1] = molecular target: T1, BRD4 bromo domain 1 [BRD4(1)] (Homo sapiens, UniProt O60885); assay: BRD4(1)/acetylated peptide H4 binding assay (TR-FRET); conditions: inhibition of interaction between His6-tagged BRD4(1) (amino acids 67-152) and acetylated histone H4 peptide
T1 construct: N-terminally His6-tagged BRD4(1) (amino acids 67-152); made in house; host or cells: E. coli
Text: (§1) Protein-Protein Interaction Assay: BRD4/Acetylated Peptide H4 Binding Assay
1. Assay Description for BRD4 Bromo Domain 1 [BRD4(1)]
To assess the BRD4(1) binding strength of the substances described in this application, the ability thereof to inhibit the interaction between BRD4(1) and acetylated histone H4 in a dose-dependent manner was quantified.
(§2) For this purpose, a time-resolved fluorescence resonance energy transfer (TR-FRET) assay was used, which measures the binding between N-terminally His6-tagged BRD4(1) (amino acids 67-152) and a synthetic acetylated histone H4 (Ac-H4) peptide with sequence GRGK(Ac)GGK(Ac)GLGK(Ac)GGAK(Ac)RHGSGSK-biotin. The recombinant BRD4(1) protein produced in-house according to Filippakopoulos et al., Cell, 2012, 149:214-231 was expressed in E. coli and purified by means of (Ni-NTA) affinity and (Sephadex G-75) size exclusion chromatography. The Ac-H4 peptide can be purchased, for example, from Biosyntan (Berlin, Germany).
(§3) In the assay, typically 11 different concentrations of each substance (0.1 nM, 0.33 nM, 1.1 nM, 3.8 nM, 13 nM, 44 nM, 0.15 μM, 0.51 μM, 1.7 μM, 5.9 μM and 20 μM) were analysed as duplicates on the same microtitre plate. For this purpose, 100-fold concentrated solutions in DMSO were prepared by serial dilutions (1:3.4) of a 2 mM stock solution into a clear, 384-well microtitre plate (Greiner Bio-One, Frickenhausen, Germany). From this, 50 nl were transferred into a black test plate (Greiner Bio-One, Frickenhausen, Germany). The test was started by the addition of 2 μl of a 2.5-fold concentrated BRD4(1) solution (final concentration typically 10 nM in the 5 μl of reaction volume) in aqueous assay buffer [50 mM HEPES pH 7.5, 50 mM sodium chloride (NaCl), 0.25 mM CHAPS and 0.05% serum albumin (BSA)] to the substances in the test plate. This was followed by a 10-minute incubation step at 22° C. for the pre-equilibration of putative complexes between BRD4(1) and the substances.
(§4) The mixture was then incubated in the dark at 22° C. for one hour and then at 4° C. for at least 3 hours and for no longer than overnight. The formation of BRD4(1)/Ac-H4 complexes was determined by the measurement of the resonance energy transfer from the streptavidin-Eu cryptate to the anti-6His-XL665 antibody present in the reaction. For this purpose, the fluorescence emission was measured at 620 nm and 665 nm after excitation at 330-350 nm in a TR-FRET measuring instrument, for example a Rubystar or Pherastar (both from BMG Lab Technologies, Offenburg, Germany) or a Viewlux (Perkin-Elmer). The ratio of the emissions at 665 nm and at 622 nm was taken as an indicator of the amount of BRD4(1)/Ac-H4 complexes formed.
(§5) The data (ratios) obtained were normalized, with 0% inhibition corresponding to the mean from the measurements for a set of controls (typically 32 data points) in which all the reagents were present. In these, in place of test substances, 50 nl of DMSO (100%) were used. Inhibition of 100% corresponded to the mean from the measurements for a set of controls (typically 32 data points) in which all the reagents except BRD4(1) were present. The IC50 was determined by regression analysis based on a 4-parameter equation (minimum, maximum, IC50, Hill; Y=max+(min−max)/(1+(X/IC50)Hill).

[2] = molecular target: T2, BRD4 bromo domain 2 [BRD4(2)] (Homo sapiens, UniProt O60885); assay: BRD4(2)/acetylated peptide H4 binding assay (TR-FRET); conditions: inhibition of interaction between His6-tagged BRD4(2) (amino acids 357-445) and acetylated histone H4 peptide
T2 construct: N-terminally His6-tagged BRD4(2) (amino acids 357-445); made in house; host or cells: E. coli
Text: as §1
2. Assay Description for BRD4 Bromo Domain 2 [BRD4(2)]
To assess the BRD4(2) binding strength of the substances described in this application, the ability thereof to inhibit the interaction between BRD4(2) and acetylated histone H4 in a dose-dependent manner was quantified.
as §2, with “BRD4(2)” for “BRD4(1)”, “357-445)” for “67-152)”, “SGRGK(Ac)GGK(Ac)GLGK(Ac)GGAK(Ac)RHRKVLRDNGSGSK-biotin.” for “GRGK(Ac)GGK(Ac)GLGK(Ac)GGAK(Ac)RHGSGSK-biotin.”
as §3, with “concentrated BRD4(2)” for “concentrated BRD4(1)”, “typically 100” for “typically 10”, “chloride (NaCl); 50 mM potassium fluoride (KF);” for “chloride (NaCl),”, “between BRD4(2)” for “between BRD4(1)”
as §4, with “BRD4(2)/Ac-H4” for “BRD4(1)/Ac-H4”, “chelate” for “cryptate”
as §5, with “BRD4(2)” for “BRD4(1)”

Row | pIC50 [1] | pIC50 [2] | Compound
1 | 6.98 | 6.95 | COc1cc(C(=O)NC2CCN(C)CC2)ccc1Nc1ccc2c(n1)N(C1CCCCC1)[C@H](C)C(=O)N2C [Example 12, 4-{[(3R)-4-Cyclohexyl-1,3-dimethyl-2-oxo-1,2,3,4-tetrahydropyrido[2,3-b]pyrazin-6-yl]amino}-3-methoxy-N-(1-methylpiperidin-4-yl)benzamide]
2 | 6.54 | 6.67 | CC(C)N1CCN(S(=O)(=O)c2ccc(Nc3ccc4c(n3)N(C3CCOCC3)[C@H](C)C(=O)N4C)cc2)CC1 [Example 16, (3R)-1,3-Dimethyl-6-[(4-{[4-(propan-2-yl)piperazin-1-yl]sulphonyl}phenyl)amino]-4-(tetrahydro-2H-pyran-4-yl)-3,4-dihydropyrido[2,3-b]pyrazin-2(1H)-one]
3 | 6.51 | 6.95 | C[C@@H]1C(=O)N(C)c2ccc(Nc3ccc(S(=O)(=O)N(C)C)cc3)nc2N1C1CCCCC1 [Example 17, 4-{[(3R)-4-Cyclohexyl-1,3-dimethyl-2-oxo-1,2,3,4-tetrahydropyrido[2,3-b]pyrazin-6-yl]amino}-N,N-dimethylbenzenesulphonamide]
4 | 6.66 | 6.73 | C[C@@H]1C(=O)N(C)c2ccc(Nc3ccc(S(=O)(=O)NCCc4cccnc4)cc3)nc2N1C1CCOCC1 [Example 19, 4-{[(3R)-1,3-dimethyl-2-oxo-4-(tetrahydro-2H-pyran-4-yl)-1,2,3,4-tetrahydropyrido[2,3-b]pyrazin-6-yl]amino}-N-[2-(pyridin-3-yl)ethyl]benzene-sulphonamide]
5 | 6.71 | 6.94 | COc1cc(C(=O)N2CCN(C(C)C)CC2)ccc1Nc1ccc2c(n1)N(C1CCCCC1)[C@H](C)C(=O)N2C [Example 28, (3R)-4-Cyclohexyl-6-[(2-methoxy-4-{[4-(propan-2-yl)piperazin-1-yl]carbonyl}phenyl)amino]-1,3-dimethyl-3,4-dihydropyrido[2,3-b]pyrazin-2(1H)-one]
6 | 6.62 | 6.83 | C[C@@H]1C(=O)N(C)c2ccc(Nc3ccc(C(=O)N4CC5(CCS5(=O)=O)C4)cc3)nc2N1C1CCCCC1 [Example 29, (3R)-4-Cyclohexyl-6-({4-[(1,1-dioxido-1-thia-6-azaspiro[3.3]hept-6-yl)carbonyl]phenyl}amino)-1,3-dimethyl-3,4-dihydropyrido[2,3-b]pyrazin-2(1H)-one]
7 | 6.62 | 6.97 | CC(C)N1CCN(C(=O)c2ccc(Nc3ccc4c(n3)N(C3CCCCC3)[C@H](C)C(=O)N4C)cc2)CC1 [Example 31, (3R)-4-Cyclohexyl-1,3-dimethyl-6-[(4-{[4-(propan-2-yl)piperazin-1-yl]carbonyl}phenyl)amino]-3,4-dihydropyrido[2,3-b]pyrazin-2(1H)-one]
8 | 6.42 | 7.11 | COc1cc(C(=O)N2CC3(COC3)C2)ccc1Nc1ccc2c(n1)N(C1CCCCCC1)[C@H](C)C(=O)N2C [Example 32, (3R)-4-Cycloheptyl-6-{[2-methoxy-4-(2-oxa-6-azaspiro[3.3]hept-6-ylcarbonyl)phenyl]amino}-1,3-dimethyl-3,4-dihydropyrido[2,3-b]pyrazin-2(1H)-one]
9 | 6.48 | 7.10 | C[C@@H]1C(=O)N(C)c2ccc(Nc3ccc(C(=O)N4CC5(CCS5(=O)=O)C4)cc3)nc2N1C1CCCCCC1 [Example 33, (3R)-4-Cycloheptyl-6-({4-[(1,1-dioxido-1-thia-6-azaspiro[3.3]hept-6-yl)carbonyl]phenyl}amino)-1,3-dimethyl-3,4-dihydropyrido[2,3-b]pyrazin-2(1H)-one]
10 | 6.92 | 6.63 | C[C@@H]1C(=O)N(C)c2ccc(Nc3ccc(C(=O)NCc4ccccn4)cc3)nc2N1C1CCOCC1 [Example 35, 4-{[(3R)-1,3-Dimethyl-2-oxo-4-(tetrahydro-2H-pyran-4-yl)-1,2,3,4-tetrahydropyrido[2,3-b]pyrazin-6-yl]amino}-N-(pyridin-2-ylmethyl)benzamide]
11 | 6.59 | 6.61 | Cc1cc(C(=O)N2CCN(C)CC2)ccc1Nc1ccc2c(n1)N(C1CCOCC1)[C@H](C)C(=O)N2C [Example 36, (3R)-1,3-Dimethyl-6-({2-methyl-4-[(4-methylpiperazin-1-yl)carbonyl]phenyl}amino)-4-(tetrahydro-2H-pyran-4-yl)-3,4-dihydropyrido[2,3-b]pyrazin-2(1H)-one]
12 | 6.48 | 6.84 | COc1cc(C(=O)NC2CCN(C(C)=O)CC2)ccc1Nc1ccc2c(n1)N(C1CCCCC1)[C@H](C)C(=O)N2C [Example 39, N-(1-Acetylpiperidin-4-yl)-4-{[(3R)-4-cyclohexyl-1,3-dimethyl-2-oxo-1,2,3,4-tetrahydropyrido[2,3-b]pyrazin-6-yl]amino}-3-methoxybenzamide]
13 | 6.53 | 6.79 | COc1cc(C(=O)N2CCN(C(C)C)CC2)ccc1Nc1ccc2c(n1)N(C1CCCCCC1)[C@H](C)C(=O)N2C [Example 40, (3R)-4-Cycloheptyl-6-[(2-methoxy-4-{[4-(propan-2-yl)piperazin-1-yl]carbonyl}phenyl)amino]-1,3-dimethyl-3,4-dihydropyrido[2,3-b]pyrazin-2(1H)-one]
